Here are results for 34 compounds from patent US10508118B2, “Pyrimidopyrrole compounds, method for preparing the same, pharmaceutical compositions comprising the same and uses thereof” (Xiamen University, priority 2015, dated 2019).

The structures appear in SMILES notation. Where two headings read alike, the source gives them in different places.

Holding throughout (assay type): cell-based
In test [1] the target is T1, NPM-ALK-BaF3 (Homo sapiens, UniProt Q9UM73).
T1 construct: expressed in transfected cells; host or cells: Ba/F3 cells; the other entry of the earlier key: NPM1 (P06748, Nucleophosmin)
Nature of the test: Growth inhibition of NPM-ALK transformed BaF3 cells (MTS). The note with it: 48 hours. The gist of the method: (§1)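 Cells (2×10^4/well) exposed 48 h at 37 °C to 8 compound concentrations, 3-fold down from 10 μM, in 0.1% DMSO. Growth read by MTS/PES at 490 nm after 1–4 h; inhibition normalised to DMSO and cell-free blank, IC50 from triplicates.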

The test system of test [2] is wild type BaF3. Put plainly: Growth inhibition of wild type BaF3 cells (broad-spectrum toxicity). The note with it: Mus musculus, BaF3, 48 h, MTS. Summed up:
as §1

Test [3] has as its target T2, EML4-ALK (L1196M)-BaF3 (Homo sapiens, UniProt Q9UM73, L1196M).
T2 construct: expressed in transfected cells; host or cells: Ba/F3 cells; the other entry of the earlier key: EML4 (Q9HC35, Echinoderm microtubule-associated protein-like 4)
Nature of the test: Growth inhibition of EML4-ALK (L1196M) transformed BaF3 cells (MTS). As to conditions: 48 hours. Summed up: (§2)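 Ba/F3 cells (2×10^4/well) in DMEM or RPMI1640 with 10% FBS exposed to 8 compound concentrations (top 10 μM, 1/3 serial dilution, 0.1% DMSO) for 48 h at 37 °C, 5% CO2. Viability by MTS/PES, 1-4 h, OD 490 nm; triplicates. IC50 fitted from inhibition rate.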

Test [4] addresses T3, EML4-ALK-BaF3 (Homo sapiens, UniProt Q9UM73).
T3 construct: expressed in transfected cells; host or cells: Ba/F3 cells; the other entry of the earlier key: EML4 (Q9HC35, Echinoderm microtubule-associated protein-like 4)
Nature of the test: Growth inhibition of EML4-ALK transformed BaF3 cells (MTS). As to conditions: for IC50: EML4-ALK-BaF3 cells, 48 hours, MTS. The gist of the method:
as §2

The mark [5] stands for this setting: Table 12, read-out: L1196M (IC50 nM).
The mark [6] stands for this setting: Table 11, read-out: EML4-ALK (L1196M) (IC50 nM).

As for `CC(C)Sc1ccccc1CNc1nc(Nc2ccc(S(N)(=O)=O)cc2)nc2ccn(C)c12` [IIJ-3], the concentration for half-maximal inhibition (IC50) in test [1] (Table 12) was greater than 10000 nM; in test [2] (Table 12), greater than 10000 nM; in test [3] (setting [5]) it was 9700 nM; in test [4] (Table 12), greater than 10000 nM.
Regarding `COc1cc(N2CCN(C)CC2)ccc1Nc1nc(NCc2ccccc2S(C)(=O)=O)c2c(ccn2C)n1` [IIK-1], the IC50 in test [1] (Table 12) is 1980 nM; in test [2] (Table 12), 3280 nM; in test [3] (setting [5]) it was 2100 nM; in test [4] (Table 12), roughly 2700 nM.
For `COc1cc(N2CCC(N3CCN(C)CC3)CC2)ccc1Nc1nc(NCc2ccccc2S(C)(=O)=O)c2c(ccn2C)n1` [IIK-2], in that order: roughly 3420 nM, roughly 2950 nM, roughly 2950 nM and roughly 3150 nM.
On to `Cn1ccc2nc(Nc3ccc(N4CCC(O)CC4)cc3)nc(NCc3ccccc3S(C)(=O)=O)c21` [IIK-3], for which the concentration for half-maximal inhibition (IC50) in test [1] (Table 12), in test [2] (Table 12), in test [3] (setting [5]) and in test [4] (Table 12) was greater than 10000 nM in each case.
In the case of `CN1CCN(c2ccc(Nc3nc(NCc4ccccc4S(C)(=O)=O)c4c(ccn4C)n3)cc2)CC1` [IIK-5], the IC50 is 1880 nM in test [1] (Table 12), roughly 2870 nM in test [2] (Table 12), roughly 2560 nM in test [3] (setting [5]) and 1430 nM in test [4] (Table 12).
For `COc1cc(C(=O)N2CCC(N3CCN(C)CC3)CC2)ccc1Nc1nc(NCc2ccccc2S(C)(=O)=O)c2c(ccn2C)n1` [IIK-6], in that order: greater than 10000 nM, greater than 10000 nM, greater than 10000 nM and greater than 10000 nM.
Take `COc1cc(N2CCN(C)CC2)ccc1Nc1nc(NCc2ccccc2S(=O)(=O)C(C)C)c2c(ccn2C)n1` [IIL-1]: the concentration for half-maximal inhibition (IC50) is 1350 nM in test [1] (Table 12), roughly 2610 nM in test [2] (Table 12), 1590 nM in test [3] (setting [5]) and 1300 nM in test [4] (Table 12).
For the compound `COc1cc(N2CCC(N3CCN(C)CC3)CC2)ccc1Nc1nc(NCc2ccccc2S(=O)(=O)C(C)C)c2c(ccn2C)n1` [IIL-2], the IC50 in test [1] (Table 12) is 1820 nM; in test [2] (Table 12) it was 2620 nM; in test [3] (setting [5]) it was 1420 nM; in test [4] (Table 12), 627 nM. In addition, in test [4] (ratio of IC50 between wild-type BaF3 and ALK transformed BaF3 cells), the targeting selectivity entry is “good targeting selectivity”.
On to `CC(C)S(=O)(=O)c1ccccc1CNc1nc(Nc2ccc(N3CCC(O)CC3)cc2)nc2ccn(C)c12` [IIL-3], for which the IC50 was 7440 nM in test [1] (Table 12), greater than 10000 nM in test [2] (Table 12), greater than 10000 nM in test [3] (setting [5]) and greater than 10000 nM in test [4] (Table 12).
For the compound `CC(C)S(=O)(=O)c1ccccc1CNc1nc(Nc2ccc(S(N)(=O)=O)cc2)nc2ccn(C)c12` [IIL-4], the 50% inhibitory concentration (IC50) in test [1] (Table 12), in test [2] (Table 12), in test [3] (setting [5]) and in test [4] (Table 12) was greater than 10000 nM each time.
As for `CC(C)S(=O)(=O)c1ccccc1CNc1nc(Nc2ccc(N3CCN(C)CC3)cc2)nc2ccn(C)c12` [IIL-5], the IC50 in test [1] (Table 12) was 848 nM; in test [2] (Table 12), roughly 2760 nM; in test [3] (setting [5]) it was 1530 nM; in test [4] (Table 12), 1140 nM.
For the compound `COC(=O)c1ccccc1Oc1nc(Nc2ccc(N3CCN(C)CC3)cc2OC)nc2ccn(C)c12` [IIN-1], the half-maximal inhibitory concentration (IC50) in test [1] (Table 12) was greater than 10000 nM; in test [2] (Table 12), roughly 9960 nM; in test [3] (setting [5]), 6470 nM; in test [4] (Table 12), roughly 5750 nM.
Consider `COC(=O)c1ccccc1Oc1nc(Nc2ccc(N3CCC(N4CCN(C)CC4)CC3)cc2OC)nc2ccn(C)c12` [IIN-2], for which the half-inhibitory concentration (IC50) is 2330 nM in test [1] (Table 12), 5630 nM in test [2] (Table 12), 2220 nM in test [3] (setting [5]) and roughly 2590 nM in test [4] (Table 12).
As to `COC(=O)c1ccccc1Oc1nc(Nc2ccc(N3CCC(O)CC3)cc2)nc2ccn(C)c12` [IIN-3], the concentration for half-maximal inhibition (IC50) in test [1] (Table 12), in test [2] (Table 12), in test [3] (setting [5]) and in test [4] (Table 12) was greater than 10000 nM in each case.
As for `COC(=O)c1ccccc1Oc1nc(Nc2ccc(S(N)(=O)=O)cc2)nc2ccn(C)c12` [IIN-4], the IC50 in test [1] (Table 12), in test [2] (Table 12), in test [3] (setting [5]) and in test [4] (Table 12) was greater than 10000 nM throughout.
Take `CNC(=O)c1ccccc1Nc1nc(Nc2ccc(N3CCC(N4CCN(C)CC4)CC3)cc2OC)nc2cc[nH]c12` [IJ-1]: the half-inhibitory concentration (IC50) was determined as 4660 nM in test [1] (Table 11), 5010 nM in test [2] (Table 11), 3940 nM in test [3] (setting [6]) and 4270 nM in test [4] (Table 11).
For `CNC(=O)c1ccccc1Nc1nc(Nc2ccc(N3CCC(N4CCCC4)CC3)cc2OC)nc2cc[nH]c12` [IJ-2], in that order: roughly 8360 nM, roughly 11700 nM, 4110 nM and roughly 8710 nM.
For `CNC(=O)c1ccccc1Nc1nc(Nc2ccc(S(N)(=O)=O)cc2)nc2cc[nH]c12` [IJ-3], in that order: greater than 10000 nM, greater than 10000 nM, greater than 10000 nM and greater than 10000 nM.
For `COC(=O)c1sccc1Nc1nc(Nc2ccc(N3CCN(C)CC3)cc2OC)nc2cc[nH]c12` [IK-1], in that order: 1780 nM, 1820 nM, 1550 nM and roughly 2580 nM.
With `COC(=O)c1sccc1Nc1nc(Nc2ccc(N3CCC(N4CCN(C)CC4)CC3)cc2OC)nc2cc[nH]c12` [IK-2], the IC50 was roughly 823 nM in test [1] (Table 11), roughly 913 nM in test [2] (Table 11), 451 nM in test [3] (setting [6]) and 669 nM in test [4] (Table 11).
For the compound `COc1cc(N2CCN(C)CC2)ccc1Nc1nc(NCc2ccccc2SC)c2[nH]ccc2n1` [IL-1], the half-inhibitory concentration (IC50) is roughly 929 nM in test [1] (Table 11), roughly 2820 nM in test [2] (Table 11), 1620 nM in test [3] (setting [6]) and 1320 nM in test [4] (Table 11).
Take `COc1cc(N2CCC(N3CCN(C)CC3)CC2)ccc1Nc1nc(NCc2ccccc2SC)c2[nH]ccc2n1` [IL-2]: the half-inhibitory concentration (IC50) is roughly 7720 nM in test [1] (Table 11), roughly 7840 nM in test [2] (Table 11), 2000 nM in test [3] (setting [6]) and roughly 2570 nM in test [4] (Table 11).
Consider `CSc1ccccc1CNc1nc(Nc2ccc(N3CCC(O)CC3)cc2)nc2cc[nH]c12` [IL-3], for which the half-inhibitory concentration (IC50) in test [1] (Table 11) came out at 5180 nM; in test [2] (Table 11) it was 5180 nM; in test [3] (setting [6]), 5020 nM; in test [4] (Table 11) it was 3500 nM.
With `CSc1ccccc1CNc1nc(Nc2ccc(S(N)(=O)=O)cc2)nc2cc[nH]c12` [IL-4], the concentration for half-maximal inhibition (IC50) in test [1] (Table 11) is greater than 10000 nM; in test [2] (Table 11) it was greater than 10000 nM; in test [3] (setting [6]), greater than 10000 nM; in test [4] (Table 11), 9510 nM.
Take `COc1cc(N2CCN(C)CC2)ccc1Nc1nc(NCc2ccccc2SC(C)C)c2[nH]ccc2n1` [IM-1]: the IC50 in test [1] (Table 11) was 572 nM; in test [2] (Table 11) it was roughly 867 nM; in test [3] (setting [6]), 587 nM; in test [4] (Table 11), roughly 300 nM.
For `CC(C)Sc1ccccc1CNc1nc(Nc2ccc(N3CCC(O)CC3)cc2)nc2cc[nH]c12` [IM-2], in that order: 1620 nM, 2900 nM, 1310 nM and 1240 nM.
For `CC(C)Sc1ccccc1CNc1nc(Nc2ccc(S(N)(=O)=O)cc2)nc2cc[nH]c12` [IM-3], in that order: greater than 10000 nM, greater than 10000 nM, greater than 10000 nM and 7530 nM.
With `COc1cc(N2CCN(C)CC2)ccc1Nc1nc(NCc2ccccc2S(C)(=O)=O)c2[nH]ccc2n1` [IN-1], the IC50 in test [1] (Table 11), in test [2] (Table 11), in test [3] (setting [6]) and in test [4] (Table 11) was greater than 10000 nM throughout.
For `COc1cc(N2CCC(N3CCN(C)CC3)CC2)ccc1Nc1nc(NCc2ccccc2S(C)(=O)=O)c2[nH]ccc2n1` [IN-2], the 50% inhibitory concentration (IC50) in test [1] (Table 11), in test [2] (Table 11), in test [3] (setting [6]) and in test [4] (Table 11) was greater than 10000 nM throughout.
As for `CS(=O)(=O)c1ccccc1CNc1nc(Nc2ccc(N3CCC(O)CC3)cc2)nc2cc[nH]c12` [IN-3], the IC50 in test [1] (Table 11), in test [2] (Table 11), in test [3] (setting [6]) and in test [4] (Table 11) was greater than 10000 nM throughout.
As for `CS(=O)(=O)c1ccccc1CNc1nc(Nc2ccc(S(N)(=O)=O)cc2)nc2cc[nH]c12` [IN-4], the concentration for half-maximal inhibition (IC50) in test [1] (Table 11), in test [2] (Table 11), in test [3] (setting [6]) and in test [4] (Table 11) was greater than 10000 nM throughout.
Take `COc1cc(N2CCN(C)CC2)ccc1Nc1nc(NCc2ccccc2S(=O)(=O)C(C)C)c2[nH]ccc2n1` [IO-1]: the IC50 was 4830 nM in test [1] (Table 11), 4080 nM in test [2] (Table 11), 3400 nM in test [3] (setting [6]) and 1720 nM in test [4] (Table 11).
The corresponding values for `CC(C)S(=O)(=O)c1ccccc1CNc1nc(Nc2ccc(N3CCC(O)CC3)cc2)nc2cc[nH]c12` [IO-3] are greater than 10000 nM, greater than 10000 nM, greater than 10000 nM and greater than 10000 nM.
`CC(C)S(=O)(=O)c1ccccc1CNc1nc(Nc2ccc(S(N)(=O)=O)cc2)nc2cc[nH]c12` [IO-4]: the half-inhibitory concentration (IC50) in test [1] (Table 11), in test [2] (Table 11), in test [3] (setting [6]) and in test [4] (Table 11) was greater than 10000 nM each time.

The term IC50 denotes the concentration at which inhibition is half-maximal.
